Test results from patent US6872702B1, “Inhibitors for urokinase receptor” (Wilex AG, priority 1997, dated 2005).
Marks after values point to notes of the source that are not given here. Positions of bridges follow the written chain, without caps; N, C: chain ends. Residues, ends and D or L forms follow the SMILES beside them. No end group written: not given here.

Legend:
[1] = biological target: T1, cell surface-associated uPAR (Homo sapiens, UniProt Q03405); assay: Flow cytometry: inhibition of binding of FITC-conjugated pro-uPA to cell surface-associated uPAR on PMA-stimulated U937 cells
T1 construct: source of cellular native uPAR; endogenous in cells; host or cells: U937 cells stimulated with PMA
Protocol: The ability of the synthetic peptides to inhibit the uPA/uPAR interaction was determined by means of flow cytometry on a FACScan flow cytometer (Becton-Dickinson, Heidelberg, Germany) using the human promyeloid cell line U937 as a source of cellular native uPAR (Chuchulowski et al., Fibrinolysis 6, Suppl. 4 (1992), 95-102; Magdolen et al., (1996), supra). The U937 cells were stimulated with […] phorbol-12-myristate-13-acetate (PMA) for 48 h. After stimulation with PMA the U937 cells expressed considerable amounts of cell surface-associated uPAR.
The stimulated cells were treated for 1 min at room temperature with 50 mM glycine HCl, 0.1 NaCl, pH 3.6 in order to dissociate endogenous receptor-bound uPA. Subsequently the acidic buffer was neutralized with 0.5 M HEPES-100 mM NaCl, pH 7.5. […] Before the analysis, propidium iodide, a fluorescent dye which specifically binds double-stranded DNA, was added to each sample in order to determine the viability of the analysed U937 cells. […]
For this the purified peptides were analysed by mass spectroscopy, quantified by amino acid analysis and then tested by flow cytometry according to the method described in 1.3 for their ability to inhibit the binding of fluorescent-labelled pro-uPA to the uPA receptor on U937 cells. […]

recombinant human uPAR = biological target: T2, recombinant human uPAR (Homo sapiens, UniProt Q03405); assay: Microtitre plate solid phase ATF-ligand binding test; conditions: 0.6 ng ATF together with 15 μg synthetic peptide per ml; FIG. 2
T2 construct: made in house; host or cells: CHO cells
Protocol: In addition to the flow cytometric analyses, a solid phase ATF-ligand binding test was carried out in order to examine the interactions of synthetic peptides with the uPAR. For this microtitre plates were coated with recombinant human uPAR from CHO cells (Wilhelm et al., FEBS Lett. 337 (1994), 131-134; Magdolen et al., Electrophoresis 16 (1995), 813-816) and the remaining protein-binding sites were saturated with 2% BSA (weight/vol). After incubation with the samples (0.6 ng ATF together with 15 μg synthetic peptide per ml) and several wash steps, the amount of ATF which had bound to the uPAR immobilized on the microtitre plate was determined using a biotinylated monoclonal mouse antibody against the kringle domain of ATF (No. 377, American Diagnostics, Greenwich, Conn., USA) and subsequent addition of avidin-peroxidase conjugate and 3,3′,5,5′-tetramethylbenzidine/[…] as a substrate for the peroxidase. The presence of synthetic peptides which compete with the ATF binding to uPAR reduces the conversion of the chromogenic substrate.
A series of peptides with variable sequence regions from the receptor binding region of uPA were synthesized and were increasingly shortened at the amino terminus starting with uPA10-32. The microtitre plate solid phase binding test described in 1.4 was used to determine the inhibitory capacity of these peptides.

[2] = Stability of binding activity after long storage in aqueous solution or repeated freeze/thaw cycles; type: physicochemical
[3] = system: human breast cancer cells MDA-MB-231; assay: Primary tumour growth of MDA-MB-231 cells injected into naked mice; type: in vivo, Balbc/3 naked mice; conditions: 10 mg/kg intraperitoneally twice weekly
Protocol: 6×10^6 human breast cancer cells MDA-MB-231 (Price et al., Cancer Res. 50 (1990), 717-721) in a total volume of 300 μl were injected into the right side of 4-6 week old Balbc/3 naked mice. Before injection the cancer cells were mixed with 200 μg of the cyclic uPA peptides cyclo^19,31uPA19-31 (SEQ ID NO: 3) and Cyclo^21,29[Cys21,29]uPA21-30 (SEQ ID NO: 4) in PBS, pH 7.4. Subsequently the mice were treated twice weekly intraperitoneally with the respective peptide at a dose of 10 mg/kg body weight (injection volume 300 μl). The volume of the primary tumours which occurred in the mice in cm^3 was determined after 1, 2, 3 and 5 weeks by measuring the two largest diameters. The control mice were administered PBS pH 7.4. Each group was composed of 5 mice. The results for the peptide cyclo^19,31uPA19-31 (SEQ ID NO: 3) are shown in Tab. 2.

T2 sequence (Q03405 23-299 limits assumed): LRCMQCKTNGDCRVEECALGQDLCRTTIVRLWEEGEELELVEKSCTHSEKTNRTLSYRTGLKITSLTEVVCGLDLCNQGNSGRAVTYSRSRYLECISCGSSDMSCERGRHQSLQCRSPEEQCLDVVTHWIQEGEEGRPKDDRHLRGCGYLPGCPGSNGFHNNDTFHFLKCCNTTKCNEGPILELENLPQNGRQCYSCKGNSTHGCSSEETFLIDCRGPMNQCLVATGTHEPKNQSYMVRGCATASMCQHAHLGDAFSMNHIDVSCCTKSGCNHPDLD
T1 sequence (Q03405 23-305): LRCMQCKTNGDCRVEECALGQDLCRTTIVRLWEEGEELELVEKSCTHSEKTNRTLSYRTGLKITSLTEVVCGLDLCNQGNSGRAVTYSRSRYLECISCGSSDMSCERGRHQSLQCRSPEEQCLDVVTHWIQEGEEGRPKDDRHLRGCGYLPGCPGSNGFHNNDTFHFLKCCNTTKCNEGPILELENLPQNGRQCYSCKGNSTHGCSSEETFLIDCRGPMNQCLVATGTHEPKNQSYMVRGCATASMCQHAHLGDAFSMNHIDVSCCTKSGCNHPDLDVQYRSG

Molecule | inhibition of the binding of ATF to uPAR / uPAR binding capacity (recombinant human uPAR) | also measured
CC[C@H](C)[C@H](NC(=O)[C@H](CC(N)=O)NC(=O)[C@H](CO)NC(=O)[C@H](Cc1ccccc1)NC(=O)[C@H](Cc1ccc(O)cc1)NC(=O)[C@H](CCCCN)NC(=O)[C@H](CC(N)=O)NC(=O)[C@H](CO)NC(=O)[C@@H](NC(=O)[C@@H](N)CS)C(C)C)C(=O)N[C@@H](Cc1c[nH]cn1)C(=O)N[C@@H](Cc1c[nH]c2ccccc12)C(=O)N[C@@H](CS)C(=O)O [uPA19-31] (H-CVSNKYFSNIHWC-OH; N-terminus and C-terminus assumed) | higher affinity than the longer peptide uPA16-32 | 
cyclo^19-31uPA19-31: cyclic peptide uPA19-31 with an intramolecular disulfide bond between the cysteine residues at positions 19 and 31 (CVSNKYFSNIHWC; disulfide 1-13) | still able to inhibit the binding of uPA to the uPA receptor | stability of binding activity compared with linear peptide uPA19-31 [2]: significantly more stable; volume of the primary tumours ([3]; week 1): 0 cm^3; volume of the primary tumours ([3]; week 2): 0.086 ± 0.047 cm^3; volume of the primary tumours ([3]; week 3): 0.303 ± 0.129 cm^3; volume of the primary tumours ([3]; week 5, p = 0.02): 0.62 ± 0.21* cm^3
uPA12-31: linear peptide from the receptor binding region of uPA, amino acids 12-31 as printed (DCLNGGTCVSNKYFSNIHWC) | effectively inhibit | 

Now from value to molecule, other results behind:

inhibition of the binding of ATF to uPAR / uPAR binding capacity (recombinant human uPAR) | Molecule | also measured
effectively inhibit | CC[C@H](C)[C@H](NC(=O)[C@H](CC(N)=O)NC(=O)[C@H](CO)NC(=O)[C@H](Cc1ccccc1)NC(=O)[C@H](Cc1ccc(O)cc1)NC(=O)[C@H](CCCCN)NC(=O)[C@H](CC(N)=O)NC(=O)[C@H](CO)NC(=O)[C@@H](NC(=O)[C@H](CS)NC(=O)[C@@H](NC(=O)CNC(=O)CN)[C@@H](C)O)C(C)C)C(=O)N[C@@H](Cc1c[nH]cn1)C(=O)N[C@@H](Cc1c[nH]c2ccccc12)C(=O)N[C@@H](CS)C(=O)N[C@@H](CC(N)=O)C(=O)O [uPA16-32] (H-GGTCVSNKYFSNIHWCN-OH; N-terminus assumed) | fold higher affinity to uPAR compared to uPA12-32 [C19A] and clone 20 peptide [1]: 4- to 5 fold; molar excess resulting in a 50% inhibition of the binding of uPA ([1]; FITC-conjugated pro-uPA): approximately 3,000 molar excess
effectively inhibit | uPA10-32: linear peptide from the receptor binding region of uPA, amino acids 10-32 (NCDCLNGGTCVSNKYFSNIHWCN) | 
effectively inhibit | uPA14-32: linear peptide from the receptor binding region of uPA, amino acids 14-32 (LNGGTCVSNKYFSNIHWCN) | 
does not bind at all | uPA20-34: linear peptide from the receptor binding region of uPA, amino acids 20-34 (VSNKYFSNIHWCNCP) | 
